Consider nine molecules from patent US20240209028A1, “CNP COMPOUNDS” (priority 2022, published 2024).

Data set [1] concerns the target T1, neprilysin (NEP) (Homo sapiens, UniProt P08473). The experiment in a line: In vitro neprilysin stability. As to conditions: recombinant human neprilysin (rhNEP), pH 7.4.
Data set [2] can be described thus: PK after i.v. and s.c. administration to Göttingen minipig. As to conditions: female, in vivo, Göttingen Minipig. As to the method:
The purpose of this study was to investigate pharmacokinetic and pharmacodynamic properties after intravenous (i.v.) and subcutaneous (s.c.) administration to Gottingen Minipig and domestic LYD pig, and to estimate bioavailability after s.c. dosing. Quantitative plasma analysis of CNP and cGMP levels were performed as described in
Animals and dosing: The pharmacokinetic and pharmacodynamic studies in Gottingen Minipig or domestic LYD pig were conducted at CRO Minerva Imaging or Novo Nordisk A/S, respectively. CNP compounds were dosed to normal female 1) Gottingen minipigs 6-12 months of age with an average weight of 22 kg or 2) domestic LYD pigs 4-5 months of age with and average weight of 80 kg. At least one week prior to dosing, permanent central venous catheters were implanted for blood sampling and intravenous (i.v.) dosing. For subcutaneous (s.c.) dosing, the pigs were ultrasound scanned and the optimal injection area laterally on the neck marked by a permanent tattoo. An insulin pen (NovoPen Echo or NovoPen 4) and insulin needle (NovoFine 32G/4 mm or NovoTwist 32G/5 mm) were used for accurate deposition of the CNP formulations in the subcutaneous fat tissue with the needle perpendicular to the skin.
CNP compounds were formulated according to the principles in General Methods of Preparation—Method G and were either A) 8 mM sodium phosphate, 250 mM glycerol, pH 6.5, B) 5 mM sodium acetate, 250 mM glycerol, pH 4.0, C) 5 mM sodium acetate, 240 mM propylene glycol, pH=4.0, D) 8 mM sodium phosphate, 250 mM glycerol, pH 7.5 or E) 20 mM sodium phosphate, 223 mM propylene glycol, pH 6.0.
Intravenously, the CNP compounds were dosed at 30-60 nmol/kg to Minipig and 15-43 nmol/kg to domestic pig using formulations A-E. Subcutaneously, the CNP compounds were dosed at 55-62 nmol/kg to Minipig and 20-30 nmol/kg to domestic pig using formulations A-D.
Sampling: Blood samples of approximately 1 mL were collected pre dose and up to 14 days post dose into EDTA-coated tubes (8 mM) for cGMP and CNP compound analysis by LC-MS. In few instances, cGMP was only analysed up to 48 hours post dose after intravenous dosing in domestic LYD pig. The blood samples were kept on wet ice for maximum 30 minutes until centrifugation for 10 minutes at 4° C. and minimum 1500G, and the plasma samples were stored at −20° C. until analysis.
Plasma concentration-time profiles were analyzed by non-compartmental PK analysis using Phoenix WinNonlin 8.1, Pharsight Inc., Mountain View, CA, USA. Calculation of the area under the plasma concentration-time curve (AUC) was based on the “linear up log down” method, and uniform weighting was used for estimation of the terminal rate constant (λz). S.c. bioavailability (F) was calculated as the dose-normalized AUC (AUC/dose) after s.c. administration divided by the AUC/dose after i.v. administration. […]

Data set [3] in a line: CNP local tolerance study in LYD pigs (s.c. injection, histopathology). Type of data set: in vivo, domestic LYD pig. To be noted: LYD pig, s.c., approx. 4400 μM, 4 or 5 days after injection. The text has this: The purpose of this study was to evaluate the local tissue reaction response to subcutaneous injection of CNP compounds in pigs.
Procedure: In domestic pigs, the injection site was subjected to histopathologic examination after subcutaneous dosing. Injections were placed mid-back between the shoulder and hip on both sides of the dorsal midline, and one or two days before injection sites of 2×2 cm were shaved and marked by permanent ink under light anaesthesia. Each injection consisted of 100 or 200 μl formulation with a concentration of approx. 4400 μM. CNP compound formulations were prepared according to the principles in General Methods of Preparation—Method G, and were either A) 8 mM sodium phosphate, 250 mM glycerol, pH 6.5, B) 5 mM sodium acetate, 250 mM glycerol, pH 4.0 or C) 5 mM sodium acetate, 240 mM propylene glycol, pH 4.0 and physiological saline was included as negative control.
On Day 1 the pigs were lightly anaesthetised. An insulin pen (NovoPen 4) and insulin needle (NovoTwist 32G/5 mm) were used for accurate deposition of the CNP formulations in the subcutaneous fat tissue with the needle perpendicular to the skin. On Day 5 (4 days post injection) or 6 (5 days post injection), the pigs were euthanised, and the injection sites were removed and fixed in 4% phosphate buffered neutral formaldehyde in sealed plastic containers. The tissue blocks were prefixed for 2-4 hours in 10% buffered formalin, cut into 2 mm thick slabs with a multi knife, examined for macroscopic changes and finally fixed overnight in cassettes. Two slabs of tissue were selected for light microscopic evaluation where the tissue reaction was maximal or alternatively in the central part of the injection site. Three to four 2-4 μm sections were cut from three levels at 100 μm distance, stained with haematoxylin and eosin (H&E) and evaluated in a light microscope. Histopathological changes were graded on a 5-level scale ((Minimal (Min), Mild (Mil), Moderate (Mod), Marked (Mar) and Severe (Sev)). The studies are summarised in Table 18.
Results: The results are summarised in Table 19. * Necrosis was used as a marker for local subcutaneous reactions; **NAD: No Abnormalities Detected

A short description of data set [4]: Local tolerance of CNP compounds in rats (s.c. injection, histopathology). It counts as in vivo, Sprague Dawley rat. As to conditions: rat, s.c. 350 μl, about 1000 nmol/ml, 5 days post injection. The procedure: The purpose of this study was to evaluate the local tissue reaction to subcutaneous injection of CNP compounds in rats.
Procedure: The CNP compounds were formulated according to the principles described in General Methods of Preparation-Method G. Each Sprague Dawley rat (male, 10-11 weeks of age at arrival, Janvier, France) was dosed s.c. with 250 or 350 uL of the same compound (formulation concentration of 1000 nmol/mL) 120 h prior to tissue collection resulting in a total of two injections for each animal (Table 15). Injection site (flank or neck) was alternated across animals within each group and time point.
Animals had access to tap water and food (Altromin 1324) ad libitum. Group size was n=3 for vehicles and positive control, and n=4 for test compounds. Vehicles and compounds were formulated in either 5 mM sodium acetate, 250 mM glycerol, pH 4.0 or 8 mM sodium phosphate, 250 mM glycerol, pH 7.4 as shown in Table 16.
The animals were anesthetized with isoflurane. Via an electric shaving machine, a squared area of fur (2 cm×2 cm) was removed either from the rats' neck or flank area). For dosing, a new injection needle (25G canula, 1 ml syringe) was placed in the middle of the square border closest to the animal's head and the needle was inserted into the skin from the border towards the center of the square. […] On the day of tissue collection, the rats were deeply anaesthetized with isoflurane and euthanized by exsanguination. The injection sites were inspected and scored with regards to pathological lesions. The injection sites were evaluated, and any changes were noted (location, colour, shape and size), and sampled for histology preparation.
The injection sites were removed and fixed in 4% phosphate buffered neutral formaldehyde in sealed plastic containers.
Each injection site was subsequently cut into three sections 0.8 cm, 1.0 cm and 1.2 cm from the square border where the injection needle was placed, and, respectively, these sections represented the injection sites and the adjacent tissue. The tissue was processed, embedded in paraffin and cut in 2-4 μm thin sections, stained with the haematoxylin and eosin (H&E), and evaluated microscopically with a light microscope. Histopathological changes were graded on a 5-level scale (Minimal (Min), Mild (Mil), Moderate (Mod), Marked (Mar) and Severe (Sev)).

Data set [5] deals with T1, neprilysin (NEP).
The target of data set [6] is Recombinant human neprilysin (rhNEP; R&D Systems) (human) (UniProt P08473). The experiment in a line: cell-based or functional assay.
The conditions of data set [7]: in vivo; cited from earlier work.
Data set [8] addresses Recombinant human neprilysin (rhNEP; R&D Systems) (human, UniProt P08473 52-750). The experiment in a line: cell-based or functional assay.

Like-named read-outs stand apart in the source and are kept apart here. Starred links: 1 amine or outer side, 2 acyl side, 3 side chain; linkers in the order of their positions; H or OH if unused. Positions of bridges follow the written chain, without caps; N, C: chain ends. Residues, ends and D or L forms follow the SMILES beside them. No end group written: not given here. *: point of attachment. C18 diacid = O=C(O)CCCCCCCCCCCCCCCCC(=O)*; γGlu = O=C(O)[C@H](CCC(=O)[*:2])N[*:1]; C18d = not defined here; AEEA = NCCOCCOCC(=O)O

Sequence of Recombinant human neprilysin (rhNEP; R&D Systems) (P08473 52-750 limits assumed): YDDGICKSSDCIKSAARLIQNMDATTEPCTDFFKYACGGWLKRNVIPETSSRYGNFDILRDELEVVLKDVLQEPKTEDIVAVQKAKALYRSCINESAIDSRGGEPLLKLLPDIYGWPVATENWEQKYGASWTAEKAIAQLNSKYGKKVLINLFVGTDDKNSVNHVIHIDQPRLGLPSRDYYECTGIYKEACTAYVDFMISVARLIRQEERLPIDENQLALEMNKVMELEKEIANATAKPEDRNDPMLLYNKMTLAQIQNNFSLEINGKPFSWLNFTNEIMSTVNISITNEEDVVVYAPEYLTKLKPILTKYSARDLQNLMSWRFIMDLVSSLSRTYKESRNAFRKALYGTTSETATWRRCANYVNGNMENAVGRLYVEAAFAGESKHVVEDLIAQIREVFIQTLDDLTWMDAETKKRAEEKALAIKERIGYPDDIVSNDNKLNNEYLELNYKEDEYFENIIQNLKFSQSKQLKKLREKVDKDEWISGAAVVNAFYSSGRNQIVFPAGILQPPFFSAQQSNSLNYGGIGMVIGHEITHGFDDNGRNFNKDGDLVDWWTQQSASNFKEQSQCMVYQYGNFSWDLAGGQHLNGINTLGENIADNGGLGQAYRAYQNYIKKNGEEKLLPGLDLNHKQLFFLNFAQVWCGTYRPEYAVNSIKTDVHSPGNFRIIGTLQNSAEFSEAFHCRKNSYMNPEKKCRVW
T1 sequence (P08473 whole entry): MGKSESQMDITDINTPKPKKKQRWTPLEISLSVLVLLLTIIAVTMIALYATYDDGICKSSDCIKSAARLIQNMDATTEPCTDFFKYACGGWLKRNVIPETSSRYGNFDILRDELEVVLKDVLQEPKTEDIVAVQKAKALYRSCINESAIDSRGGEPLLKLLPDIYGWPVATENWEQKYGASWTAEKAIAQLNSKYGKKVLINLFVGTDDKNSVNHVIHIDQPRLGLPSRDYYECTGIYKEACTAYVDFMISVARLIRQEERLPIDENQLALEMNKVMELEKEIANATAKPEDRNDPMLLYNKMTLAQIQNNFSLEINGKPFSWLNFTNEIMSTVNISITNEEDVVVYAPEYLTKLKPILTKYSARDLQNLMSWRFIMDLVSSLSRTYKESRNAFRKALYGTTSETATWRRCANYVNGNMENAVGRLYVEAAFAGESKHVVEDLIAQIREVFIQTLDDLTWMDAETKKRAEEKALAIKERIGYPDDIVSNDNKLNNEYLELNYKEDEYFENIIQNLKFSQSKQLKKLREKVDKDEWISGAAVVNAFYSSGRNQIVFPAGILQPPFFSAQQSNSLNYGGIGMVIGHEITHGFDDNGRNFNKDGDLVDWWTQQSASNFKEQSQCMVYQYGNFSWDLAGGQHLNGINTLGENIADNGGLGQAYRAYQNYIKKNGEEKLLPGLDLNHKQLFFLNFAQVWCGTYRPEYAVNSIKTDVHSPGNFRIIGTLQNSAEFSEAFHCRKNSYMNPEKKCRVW
Sequence of Recombinant human neprilysin (rhNEP; R&D Systems) (human) (P08473 52-750 limits assumed): as the sequence (P08473 52-750 limits assumed) above

As to `CC[C@H](C)[C@@H]1NC(=O)[C@H](CCCNC(=N)N)NC(=O)[C@H](CC(=O)O)NC(=O)[C@H](CC(C)C)NC(=O)[C@@H]2CCCN2C(=O)[C@H](CC(C)C)NC(=O)CNC(=O)[C@H](Cc2ccccc2)NC(=O)[C@@H](NC(=O)CNC(=O)[C@H](CCC(N)=O)NC(=O)[C@H](CO)NC(=O)[C@H](CO)NC(=O)CNC(=O)[C@H](CCCCN)NC(=O)[C@H](CCCCN)NC(=O)[C@H](CCC(N)=O)NC(=O)[C@H](C)NC(=O)CNC(=O)[C@@H]2CCCN2C(=O)[C@H](C)NC(=O)[C@H](CCC(N)=O)NC(=O)CNC(=O)COCCOCCNC(=O)COCCOCCNC(=O)CC[C@H](NC(=O)CCCCCCCCCCCCCCCCC(=O)O)C(=O)O)CSSC[C@@H](C(=O)O)NC(=O)CNC(=O)[C@H](CC(C)C)NC(=O)CNC(=O)[C@H](CO)NC(=O)[C@H](CC(C)C)NC(=O)[C@H](CO)NC(=O)CNC1=O` [Compound 9384] ({C18 diacid-γGlu-AEEA-AEEA}-GQAPGAQKKGSSQGCFGLPLDRIGSLSGLGC-OH; disulfide 15-31), the fraction remaining (usually what is left of the initial amount, in per cent) at 1.5 h, 1000 nM at neprilysin (NEP) [1] was 87.8%. Moreover, the clearance in data set [2] (iv, i.v., read-out: CL (ml/hr/kg), Intravenous PK (converted)) is 1.53 mL/h/kg. In addition, the half-life in data set [2] (iv, i.v., read-out: T½, iv (converted)) was 61 h. Moreover, in data set [2] (sc, s.c. bioavailability, read-out: F (%), Subcutaneous PK), the bioavailability worked out at 78%. Also, in data set [2] (sc, s.c., read-out: T½, sc (converted)), the half-life is 61 h. In data set [3], the “Number of injections by severity of necrosis: Min.” value is 1 and the “Number of injections by severity of necrosis: NAD” value is on record as 3. Besides, the “Number of injections by severity of necrosis: NAD (No Abnormalities Detected)” value in data set [4] amounted to 4.
Take `CC[C@H](C)[C@@H]1NC(=O)[C@H](CCCNC(=N)N)NC(=O)[C@H](CC(=O)O)NC(=O)[C@H](CC(C)C)NC(=O)[C@H](CCCCN)NC(=O)[C@H](CC(C)C)NC(=O)CNC(=O)[C@H](Cc2ccccc2)NC(=O)[C@@H](NC(=O)CNC(=O)[C@H](CCCCN)NC(=O)[C@H](CO)NC(=O)[C@H](CC(C)C)NC(=O)CN)CSSC[C@@H](C(=O)O)NC(=O)CNC(=O)[C@H](CC(C)C)NC(=O)CNC(=O)[C@H](CO)NC(=O)[C@H](CCSC)NC(=O)[C@H](CO)NC(=O)CNC1=O` [Compound ID 0065, hCNP22]: at neprilysin (NEP) [5], the “stability in the presence of recombinant human neprilysin” value is listed as “rapidly degraded”.
Regarding “Compound ID 9483, [N-terminal(C18d-4xgGlu), 5Q, 13Q, 19S, 25P, 27E, 32L]-hCNP37 (peptide)”, in data set [6], the Remaining of parent after 90 min (%) is 106%.
Turning to “wt CNP: wild-type C-type natriuretic peptide; half-life of approximately two minutes”, in data set [7], the half-life result was “approximately two”.

B1: Compound ID 9384, [N-terminal(C18d-gGlu-2xOEG-GQAP), des1-10, 13Q, 17S, 19Q, 25P, 32L]-hCNP37 (peptide)
peptide: {C18d-γGlu-AEEA-AEEA}-GQAPGAQKKGSSQGCFGLPLDRIGSLSGLGC
modifications: disulfide 15-31 (inferred); reading uncertain; also: printed as [N-terminal(C18d-gGlu-2xOEG-GQAP), des1-10, 13Q, 17S, 19Q, 25P, 32L]-hCNP37
For B1, the “Remaining of parent after 90 min (%)” value in data set [8] is 87.8%.
On the same count and under the same terms, as for {C18d-γGlu-γGlu-γGlu-γGlu-γGlu}-QEHPQARKYKGAQKKGLSSGCFGLPLDRIGSLSGLGC (disulfide 21-37 (inferred); reading uncertain) [Compound ID 9482, [N-terminal(C18d-5xgGlu), 5Q, 13Q, 19S, 25P, 32L]-hCNP37], the figure is 96.3%.

B2: Compound ID 9480, [N-terminal(C18d-3xgGlu-4xOEG), des1-8, 13Q, 19Q, 25P, 32L]-hCNP37 (peptide)
peptide: {C18d-γGlu-γGlu-γGlu-AEEA-AEEA-AEEA-AEEA}-YKGAQKKGLSQGCFGLPLDRIGSLSGLGC
modifications: disulfide 13-29 (inferred); reading uncertain; also: printed as [N-terminal(C18d-3xgGlu-4xOEG), des1-8, 13Q, 19Q, 25P, 32L]-hCNP37
B2: in data set [8], the “Remaining of parent after 90 min (%)” value was 98.3%.

B3: Compound ID 9407, [N-terminal(C18d-5xgGlu-4xOEG), des1-5, 13Q, 19Q, 25P, 32L]-hCNP37 (peptide)
peptide: {C18d-γGlu-γGlu-γGlu-γGlu-γGlu-AEEA-AEEA-AEEA-AEEA}-ARKYKGAQKKGLSQGCFGLPLDRIGSLSGLGC
modifications: disulfide 16-32 (inferred); reading uncertain; also: printed as [N-terminal(C18d-5xgGlu-4xOEG), des1-5, 13Q, 19Q, 25P, 32L]-hCNP37
Turning to B3, the “Remaining of parent after 90 min (%)” value in data set [8] was 96.6%.

B4: Compound ID 9435, [N-terminal(C18d-2xgGlu-4xOEG), des1-8, 13Q, 17G, 19Q, 25P, 32L]-hCNP37 (peptide)
peptide: {C18d-γGlu-γGlu-AEEA-AEEA-AEEA-AEEA}-YKGAQKKGGSQGCFGLPLDRIGSLSGLGC
modifications: disulfide 13-29 (inferred); reading uncertain; also: printed as [N-terminal(C18d-2xgGlu-4xOEG), des1-8, 13Q, 17G, 19Q, 25P, 32L]-hCNP37
On to B4, for which, in data set [8], the “Remaining of parent after 90 min (%)” value was found to be 93.2%.
